In the assay the target is T1, S100A4 (Homo sapiens, UniProt P26447).
T1 construct: recombinant human (rh)S100A4, pET-15b, E. coli BL21 (DE3); with nonmuscle myosin IIA C-terminal fragment (rC-NMIIA, 149 terminal amino acids)
Description: resonant mirror biosensor (SPR-type), inhibition of rhS100A4 binding to immobilised rC-NMIIA.

T1 sequence (P26447 2-101): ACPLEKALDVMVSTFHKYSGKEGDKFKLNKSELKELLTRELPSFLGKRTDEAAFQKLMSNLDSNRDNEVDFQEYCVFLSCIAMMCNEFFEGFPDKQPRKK
T1 sequence (P35579 2-1960 partner): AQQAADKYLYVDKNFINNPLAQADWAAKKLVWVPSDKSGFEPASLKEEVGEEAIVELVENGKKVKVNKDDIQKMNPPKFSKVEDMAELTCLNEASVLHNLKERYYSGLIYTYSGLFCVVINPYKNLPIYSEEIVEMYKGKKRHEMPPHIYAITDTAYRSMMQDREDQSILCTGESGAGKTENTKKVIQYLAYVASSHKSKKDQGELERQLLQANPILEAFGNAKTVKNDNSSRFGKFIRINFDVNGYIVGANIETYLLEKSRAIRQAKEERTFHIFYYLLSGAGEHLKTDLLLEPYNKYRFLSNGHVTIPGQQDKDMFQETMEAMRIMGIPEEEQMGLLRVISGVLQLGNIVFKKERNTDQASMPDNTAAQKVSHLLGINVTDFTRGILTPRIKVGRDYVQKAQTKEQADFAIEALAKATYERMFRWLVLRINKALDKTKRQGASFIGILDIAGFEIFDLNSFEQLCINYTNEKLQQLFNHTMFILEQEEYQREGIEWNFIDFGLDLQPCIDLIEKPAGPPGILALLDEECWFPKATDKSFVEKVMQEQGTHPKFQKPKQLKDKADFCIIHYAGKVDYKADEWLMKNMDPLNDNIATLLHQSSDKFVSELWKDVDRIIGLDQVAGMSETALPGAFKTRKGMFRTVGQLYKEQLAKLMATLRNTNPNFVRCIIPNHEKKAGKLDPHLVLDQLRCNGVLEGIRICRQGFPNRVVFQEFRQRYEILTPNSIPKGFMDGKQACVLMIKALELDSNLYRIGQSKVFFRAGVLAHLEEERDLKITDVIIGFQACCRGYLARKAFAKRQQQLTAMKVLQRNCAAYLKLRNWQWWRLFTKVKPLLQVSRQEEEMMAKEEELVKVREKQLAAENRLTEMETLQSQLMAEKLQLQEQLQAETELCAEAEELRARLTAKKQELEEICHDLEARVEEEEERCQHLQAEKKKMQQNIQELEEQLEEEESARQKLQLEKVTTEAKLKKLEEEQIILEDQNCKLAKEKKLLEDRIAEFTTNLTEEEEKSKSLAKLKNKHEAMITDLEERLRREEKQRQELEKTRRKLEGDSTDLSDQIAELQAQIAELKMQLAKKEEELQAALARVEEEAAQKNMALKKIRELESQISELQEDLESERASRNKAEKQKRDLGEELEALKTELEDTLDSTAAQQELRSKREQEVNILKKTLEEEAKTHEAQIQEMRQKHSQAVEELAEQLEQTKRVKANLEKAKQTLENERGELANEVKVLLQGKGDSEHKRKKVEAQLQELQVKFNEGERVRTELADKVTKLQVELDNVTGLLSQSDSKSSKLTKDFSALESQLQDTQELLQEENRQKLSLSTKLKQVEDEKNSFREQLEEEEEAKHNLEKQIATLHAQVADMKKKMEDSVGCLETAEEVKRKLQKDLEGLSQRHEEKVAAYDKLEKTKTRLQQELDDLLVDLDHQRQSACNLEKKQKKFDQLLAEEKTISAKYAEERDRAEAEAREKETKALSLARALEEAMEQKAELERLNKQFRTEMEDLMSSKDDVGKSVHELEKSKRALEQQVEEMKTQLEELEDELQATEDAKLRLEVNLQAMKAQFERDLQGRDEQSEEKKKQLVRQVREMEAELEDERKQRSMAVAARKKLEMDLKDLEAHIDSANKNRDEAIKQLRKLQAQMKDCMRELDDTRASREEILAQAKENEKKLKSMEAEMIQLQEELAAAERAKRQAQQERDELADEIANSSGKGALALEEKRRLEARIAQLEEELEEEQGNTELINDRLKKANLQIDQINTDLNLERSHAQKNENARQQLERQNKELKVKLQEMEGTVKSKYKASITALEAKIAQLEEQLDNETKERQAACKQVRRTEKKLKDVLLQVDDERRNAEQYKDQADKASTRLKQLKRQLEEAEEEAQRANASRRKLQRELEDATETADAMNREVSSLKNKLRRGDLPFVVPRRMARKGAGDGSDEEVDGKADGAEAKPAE

As to `COC1(OC)[C@@]2(Cl)C(Cl)=C(Cl)[C@]1(Cl)[C@@H]1C(=O)N(c3ccccc3C)C(=O)[C@@H]12` [CT070909], the inhibition (commonly the share of the control response that was lost under treatment) at 33 µM was greater than 90%.

Values taken from article PMC10377353, “Targeted Destruction of S100A4 Inhibits Metastasis of Triple Negative Breast Cancer Cells” (Biomolecules, 2023).
